Test results from PMC4462585, “Synthesis and Biological Evaluation of 3-Alkyl-1,5-Diaryl-1H-Pyrazoles as Rigid Analogues of Combretastatin A-4 with Potent Antiproliferative Activity” (PLoS ONE, 2015).

Experiments:
[1] = tested on: gastric adenocarcinoma cell line SGC-7901; test: MTT antiproliferative assay, SGC-7901; format: cell-based; conditions: Homo sapiens, 72 h drug exposure, triplicate, read-out: Antiproliferative activity (IC50 ± SD) SGC-7901
Excerpt: (§1) Pulmonary adenocarcinoma cell lines (A549) and gastric adenocarcinoma cell lines (SGC-7901) were provided as gifts (purchased from the Cell Resource Center of Shanghai Institutes for Biological Sciences) from the China-Japan Research Institute of Medical and Pharmaceutical Sciences, Shenyang Pharmaceutical University. Fibrosarcoma cell lines (HT-1080) were purchased from the Cell Resource Center of Shanghai Institutes for Biological Sciences. All cells were maintained in DMEM containing 1% antibiotics (100 units of penicillin and […] per mL in 0.9% normal saline) and 10% foetal bovine serum in a humidified atmosphere containing 5% CO2 at 37°C.
(§2) Antiproliferative activities of CA-4 and the target compounds were measured using a colourimetric assay using 3-(4,5-dimethylthiazol-2yl-)-2,5-diphenyltetrazolium bromide (MTT). Approximately 3 × 10^4 cells were seeded in a 96-well plate. After 24 h of incubation at 37°C, cells were exposed to compounds of differing concentrations (0.0008 μg/mL, 0.004 μg/mL, 0.02 μg/mL, 0.10 μg/mL, 0.50 μg/mL, 2.5 μg/mL, 12.5 μg/mL, 62.5 μg/mL) for 72 h. After treatment, cells were washed with 1X PBS followed by addition of 100 μL of 0.05% MTT reagent to each well, followed by incubation for 4 h at 37°C. After incubation, the supernatant from each well was carefully removed and the formazan crystals were dissolved in 100 μL of DMSO. The colour density was measured spectrophotometrically at 490 nm using a microplate reader (SpectraMax Plus384, Molecular Devices Corp., USA). The percentage of cell growth inhibition was calculated as follow: inhibition ratio % = (Acontrol—Atreated) / Acontrol × 100%. The 50% inhibitory concentration (IC50) was defined as the concentration that reduced the absorbance of the untreated wells by 50% of the vehicle in the MTT assay.

[2] = tested on: fibrosarcoma cell line HT-1080; test: MTT antiproliferative assay, HT-1080; format: cell-based; conditions: Homo sapiens, 72 h drug exposure, triplicate, read-out: Antiproliferative activity (IC50 ± SD) HT-1080
Excerpt: as §1, §2

[3] = tested on: pulmonary adenocarcinoma cell line A549; test: MTT antiproliferative assay, A549; format: cell-based; conditions: Homo sapiens, 72 h drug exposure, triplicate, read-out: Antiproliferative activity (IC50 ± SD) A549
Excerpt: as §1, §2

IC50 [1] | IC50 [2] | melting point | IC50 [3] | SMILES
> 100 µM | > 100 µM | 118 to 119 °C | > 100 µM | COc1ccc(-n2nc(C)cc2-c2cc(OC)c(OC)c(OC)c2)cc1[N+](=O)[O-] [Compound 8f, 3-Methyl-1-(4-methoxy-3-nitrophenyl)-5-(3,4,5-trimethoxyphenyl)-1H-pyrazole]
2.43 ± 0.09 µM | 11.9 ± 1.9 µM | 69 to 70 °C | 28.2 ± 1.7 µM | COc1cc(-c2cc(C)nn2-c2cc(N)ccc2C)cc(OC)c1OC [Compound 8e, 3-Methyl-1-(5-amino-2-methylphenyl)-5-(3,4,5-trimethoxyphenyl)-1H-pyrazole]
11.8 ± 1.2 µM | 15.6 ± 1.5 µM | 70 to 71 °C | 16.2 ± 1 µM | COc1cc(-c2cc(C)nn2-c2ccc(C)cc2)cc(OC)c1OC [Compound 8c, 3-Methyl-1-(4-methylphenyl)-5-(3,4,5-trimethoxy-phenyl)-1H-pyrazole]
19 ± 2 µM | 28.2 ± 1.9 µM | 67 to 68 °C | 9.39 ± 0.21 µM | COc1ccc(-n2nc(C)cc2-c2cc(OC)c(OC)c(OC)c2)cc1 [Compound 8b, 3-Methyl-1-(4-methoxyphenyl)-5-(3,4,5-trimethoxy-phenyl)-1H-pyrazole]
> 100 µM | > 100 µM | 88 to 89 °C | > 100 µM | COc1cc(-c2cc(C)nn2-c2ccccc2)cc(OC)c1OC [Compound 8a, 3-Methyl-1-phenyl-5-(3,4,5-trimethoxyphenyl)-1H-pyrazole]
> 100 µM | > 100 µM | 98 to 99 °C | > 100 µM | C=CCOc1cc(-n2nc(C)cc2-c2cc(OC)c(OC)c(OC)c2)ccc1OC [Compound 8h, 3-Methyl-1-(3-allyloxy-4-methoxyphenyl)-5-(3,4,5-trimethoxyphenyl)-1H-pyrazole]
31.1 ± 2.5 µM | > 100 µM | 102 to 103 °C | 48.6 ± 1.1 µM | COc1cc(-c2cc(C)nn2-c2cc([N+](=O)[O-])ccc2C)cc(OC)c1OC [Compound 8d, 3-Methyl-1-(2-methyl-5-nitrophenyl)-5-(3,4,5-trimethoxyphenyl)-1H-pyrazole]
13.7 ± 1.2 µM | 15 ± 0.9 µM | 167 to 168 °C | 21.8 ± 2.1 µM | COc1ccc(-n2nc(C)cc2-c2cc(OC)c(OC)c(OC)c2)cc1O [Compound 8i, 3-Methyl-1-(3-hydroxy-4-methoxyphenyl)-5-(3,4,5-trimethoxyphenyl)-1H-pyrazole]

Second part, the molecule before the results:

SMILES | IC50 [1] | IC50 [2] | melting point | IC50 [3]
CCc1cc(-c2ccc(OC)c([N+](=O)[O-])c2)n(-c2cc(OC)c(OC)c(OC)c2)n1 [Compound 7p, 3-Ethyl-5-(4-methoxy-3-nitrophenyl)-1-(3,4,5-trimethoxyphenyl)-1H-pyrazole] | > 100 µM | > 100 µM | 151 to 152 °C | > 100 µM
C=CCOc1ccc(-c2cc(C)nn2-c2cc(OC)c(OC)c(OC)c2)cc1OC [Compound 7f, 3-Methyl-5-(4-allyloxy-3-methoxyphenyl)-1-(3,4,5-trimethoxyphenyl)-1H-pyrazole] | 23.6 ± 2.3 µM | > 100 µM | 78 to 79 °C | > 100 µM
COc1cc(-c2cc(C)nn2-c2cc(OC)c(OC)c(OC)c2)ccc1O [Compound 7j, 3-Methyl-5-(4-hydroxy-3-methoxyphenyl)-1-(3,4,5-trimethoxyphenyl)-1H-pyrazole] | 25.9 ± 2.3 µM | > 100 µM | 197 to 198 °C | > 100 µM
CCCc1cc(-c2ccc(OC)c([N+](=O)[O-])c2)n(-c2cc(OC)c(OC)c(OC)c2)n1 [Compound 7q, 3-Propyl-5-(4-methoxy-3-nitrophenyl)-1-(3,4,5-trimethoxyphenyl)-1H-pyrazole] | > 100 µM | > 100 µM | 149 to 150 °C | > 100 µM
COc1cc(-n2nc(C)cc2-c2ccccc2)cc(OC)c1OC [Compound 7a, 3-Methyl-5-phenyl-1-(3,4,5-trimethoxyphenyl)-1H-pyrazole] | > 100 µM | > 100 µM | 77 to 78 °C | > 100 µM
C=CCOc1cc(-c2cc(C)nn2-c2cc(OC)c(OC)c(OC)c2)ccc1OC [Compound 7g, 3-Methyl-5-(3-allyloxy-4-methoxyphenyl)-1-(3,4,5-trimethoxyphenyl)-1H-pyrazole] | 6.45 ± 0.22 µM | > 100 µM | 79 to 80 °C | > 100 µM
COc1cc(-n2nc(C)cc2-c2ccc(F)cc2)cc(OC)c1OC [Compound 7d, 3-Methyl-5-(4-fluorophenyl)-1-(3,4,5-trimethoxyphenyl)-1H-pyrazole] | 20.7 ± 1.2 µM | > 100 µM | 104 to 105 °C | > 100 µM
COc1ccc(-c2c(Br)c(C)nn2-c2cc(OC)c(OC)c(OC)c2)cc1[N+](=O)[O-] [Compound 7n, 4-Bromo-3-methyl-5-(4-methoxy-3-nitrophenyl)-1-(3,4,5-trimethoxyphenyl)-1H-pyrazole] | > 100 µM | > 100 µM | 182 to 183 °C | > 100 µM
COc1ccc(-n2nc(C)cc2-c2cc(OC)c(OC)c(OC)c2)cc1N [Compound 8g, 3-Methyl-1-(3-amino-4-methoxyphenyl)-5-(3,4,5-trimethoxyphenyl)-1H-pyrazole] | 21.2 ± 1.6 µM | 24.7 ± 2.3 µM | 56 to 57 °C | 21.4 ± 1.2 µM
COc1ccc(-c2cc(C)nn2-c2cc(OC)c(OC)c(OC)c2)cc1[N+](=O)[O-] [Compound 7h, 3-Methyl-5-(4-methoxy-3-nitrophenyl)-1-(3,4,5-trimethoxyphenyl)-1H-pyrazole] | 5.22 ± 0.19 µM | > 100 µM | 145 to 146 °C | > 100 µM
CCCc1cc(-c2ccc(OC)c(N)c2)n(-c2cc(OC)c(OC)c(OC)c2)n1 [Compound 7s, 3-Propyl-5-(3-amino-4-methoxyphenyl)-1-(3,4,5-trimethoxyphenyl)-1H-pyrazole] | 35.7 ± 0.08 µM | 23.2 ± 0.11 µM | 125 to 126 °C | 56.6 ± 1 µM
CCc1cc(-c2ccc(OC)c(N)c2)n(-c2cc(OC)c(OC)c(OC)c2)n1 [Compound 7r, 3-Ethyl-5-(3-amino-4-methoxyphenyl)-1-(3,4,5-trimethoxyphenyl)-1H-pyrazole] | 4.62 ± 0.09 µM | 8.16 ± 0.12 µM | 114 to 115 °C | 3.55 ± 0.09 µM
COc1ccc(-c2c(C=O)c(C)nn2-c2cc(OC)c(OC)c(OC)c2)cc1O [Compound 7l, 4-Formyl-3-methyl-5-(3-hydroxy-4-methoxyphenyl)-1-(3,4,5-trimethoxyphenyl)-1H-pyrazole] | 16.4 ± 1.5 µM | 23.8 ± 1.8 µM | 97 to 98 °C | 45.7 ± 3.3 µM
COc1cc(-n2nc(C)cc2-c2ccc(C)cc2)cc(OC)c1OC [Compound 7c, 3-Methyl-5-(4-methylphenyl)-1-(3,4,5-trimethoxy-phenyl)-1H-pyrazole] | 0.53 ± 0.2 µM | 1.23 ± 0.15 µM | – | 2.35 ± 0.33 µM
COc1ccc(-c2cc(C)nn2-c2cc(OC)c(OC)c(OC)c2)cc1 [Compound 7b, 3-Methyl-5-(4-methoxyphenyl)-1-(3,4,5-trimethoxy-phenyl)-1H-pyrazole] | 0.73 ± 0.09 µM | 1.01 ± 0.12 µM | 118 to 119 °C | 15.2 ± 2.2 µM
